# Reference: US20240294910A1, “NOVEL THERAPEUTIC AGENT FOR SEPTICEMIA, AND A METHOD FOR SCREENING FOR SAME” (Chugai Seiyaku Kabushiki Kaisha, priority 2014, published 2024)
# Tests used:
# Format in all cases: cell-based, mouse
# Arid5A mRNA = Arid5A mRNA expression by qPCR in LPS-stimulated peritoneal macrophages; conditions: peritoneal macrophages from C57BL/6 mice, LPS (1 g/mL), test agent 20 μM, 2 hours after LPS stimulation, vs absence of CPZ; FIG. 6
# Protocol: (§1) Peritoneal macrophages from C57BL/6 mice (aged 6 to 8 weeks) were stimulated with LPS ([…]) in the presence or absence of a test agent (20 μM). The relative expression levels of mRNAs of Arid5A, IL-6, and TNF-α were determined in the stimulated peritoneal macrophages by quantitative PCR (qPCR). The expression level of Arid5A mRNA was determined 2 hours after LPS stimulation. The expression levels of IL-6 mRNA and TNF-α mRNA were determined 2 hours, 6 hours, 12 hours, and 24 hours after LPS stimulation. FIGS. 6 to 8 show the results when chlorpromazine (CPZ) was used as a test agent.
# IL-6 mRNA = IL-6 mRNA expression by qPCR in LPS-stimulated peritoneal macrophages; conditions: LPS (1 g/mL), test agent 20 μM, vs absence of CPZ, FIG. 7
# Protocol: as §1
# TNF-α mRNA = TNF-α mRNA expression by qPCR in LPS-stimulated peritoneal macrophages; conditions: LPS (1 g/mL), test agent 20 μM, determined 2, 6, 12 and 24 hours after LPS stimulation, FIG. 8
# Protocol: as §1
smiles,measurement,setting,value
"CN(C)CCCN1c2ccccc2Sc2ccc(Cl)cc21 [CPZ, chlorpromazine]",expression of Arid5A mRNA (qPCR),Arid5A mRNA,markedly suppressed
same,expression of IL-6 mRNA (qPCR),IL-6 mRNA; 2 hours after LPS stimulation,markedly suppressed
same,expression of IL-6 mRNA (qPCR),IL-6 mRNA; 6 hours after LPS stimulation,markedly suppressed
same,expression of TNF-α mRNA (qPCR),TNF-α mRNA,no effect
